Source: US8580486B2, “Salt having fluorine-containing carbanion structure, derivative thereof, photoacid generator, resist material using the photoacid generator, and pattern forming method” (Central Glass Company, Limited, priority 2008, dated 2013)
Where a name gives a salt, the structure may show the parent alone.

How the values were obtained:
[1] = Solubility in resist solvent (PGMEA); format: physicochemical; conditions: for Solubility: in propylene glycol monomethyl ether acetate (PGMEA)
[2] = Compatibility of PAG with resist (base resin); conditions: for Compatibility: acid generator (1.0), PGMEA (400)

Molecule | Solubility compared with existing PAG (PAG2) having an adamantane skeleton ([1]; in PGMEA, statement in words) | Solubility [1] | Compatibility ([2]; Resin 1 (40 parts by wt.)) | Compatibility ([2]; Resin 2 (40 parts by wt.)) | Compatibility ([2]; Resin 3 (40 parts by wt.)) | Compatibility ([2]; Resin 4 (40 parts by wt.)) | Compatibility ([2]; Resin 5 (40 parts by wt.)) | Compatibility with resists compared with conventional products ([2]; summary of Table 2 and Table 3, in words)
CC(CC(S(=O)(=O)C(F)(F)F)S(=O)(=O)C(F)(F)F)OC(=O)C12CC3CC(CC(C3)C1)C2 (centres unmarked) [PAG1, 3-(1-adamantanecarbonyl)oxy 1,1-bis(trifluoromethanesulfonyl)butane triphenylsulfonium salt] | superior | not less than 0.1 parts by weight of PAG dissolved in 100 parts by weight of PGMEA | Good | Good | Good | Good | Good | higher compatibility with resists as compared with conventional products
(adamantan-1-ylmethyl)oxycarbonyl difluoromethanesulfonic acid triphenylsulfonium [PAG2, reference compound] |  | 0.3 parts by weight of PAG dissolved in 100 parts by weight of PGMEA | Good | Good | Good | Good |  | 
nonafluorobutanesulfonic acid triphenylsulfonium salt [PAG3, reference compound] |  |  | Good |  |  |  |  | 
